Test results taken from US20150273013A1, “AGONISTS OF GUANYLATE CYCLASE USEFUL FOR THE TREATMENT OF GASTROINTESTINAL DISORDERS, INFLAMMATION, CANCER AND OTHER DISORDERS” (Synergy Pharmaceuticals, Inc., priority 2014, published 2015).
Bridges are numbered along the chain shown (N, C = ends). Where no end group is shown, it is not given here. [ ]: non-standard residue; d: D form.

What was measured:
[1] = system: colitis in murine models; details: oral treatment, Shailubhai et al. 2009; cited from earlier work
[2] = system: non-inflammatory partial restraint stress induced hypersensitivity to colorectal distension (CRD); test: Partial restraint stress induced hypersensitivity to colorectal distension, oral treatment; type: in vivo, rat; details: partial restraint stress model, oral doses of 0.01 and 0.05 mg/kg; for number of abdominal contractions in response to CRD: intracolonic distension pressures between 15 and 60 mm Hg
Protocol: (§1) Oral Treatment with Plecanatide and Sp-333, Agonists of Guanylate Cyclase-C, Attenuates Visceral Hypersensitivity in Rat Models
(§2) Oral treatment with plecanatide (Asn Asp Glu Cys Glu Leu Cys Val Asn Val Ala Cys Thr Gly Cys Leu) or SP-333 (dAsn Asp Glu Cys Glu Leu Cys Val Asn Val Ala Cys Thr Gly Cys dLeu), homologues of UG, was evaluated in rodent models of inflammatory (TNBS) and non-inflammatory partial restraint stress induced hypersensitivity to colorectal distension (CRD).

[3] = system: inflammatory (TNBS) induced hypersensitivity to colorectal distension (CRD); test: TNBS (inflammatory) induced hypersensitivity to colorectal distension, oral treatment; type: in vivo, rat; details: for colonic wall elasticity / number of abdominal contractions in response to CRD: TNBS model, oral doses of 0.01 and 0.05 mg/kg; for number of abdominal contractions in response to CRD: intracolonic distension pressures between 15 and 60 mm Hg; for colonic volume adaptation to increasing pressure: after TNBS instillation, pressures between 15 and 60 mm Hg
Protocol: as §1, §2

dAsn Asp Glu Cys Glu Leu Cys Val Asn Val Ala Cys Thr Gly Cys dLeu ([dN]DECELCVNVACTGC[dL]; disulfide 4-12, 7-15) [SP-333, GC-C agonist, homologue of uroguanylin, (C4:C12, C7:C15) bicycle peptide]
effect on colitis [1]: ameliorate colitis | colonic wall elasticity [2]: without significantly altering | number of abdominal contractions in response to CRD [2]: effectively reduced | colonic wall elasticity [3]: without significantly altering | number of abdominal contractions in response to CRD [3]: effectively reduced | colonic volume adaptation to increasing pressure [3]: reduced

Asn Asp Glu Cys Glu Leu Cys Val Asn Val Ala Cys Thr Gly Cys Leu (NDECELCVNVACTGCL; disulfide 4-12, 7-15) [plecanatide, GC-C agonist, homologue of uroguanylin, (C4:C12, C7:C15) bicycle peptide]
effect on colitis [1]: ameliorate colitis | colonic wall elasticity [2]: without significantly altering | number of abdominal contractions in response to CRD [2]: effectively reduced | colonic wall elasticity [3]: without significantly altering | number of abdominal contractions in response to CRD [3]: effectively reduced | colonic volume adaptation to increasing pressure [3]: reduced
